Test results from patent US20260115180A1, “TREATMENT OF HYPOTHALAMIC OBESITY” (Saniona A/S, priority 2020, published 2026).

Experiments:
[1] = in vivo; cited from earlier work
[2] = Open-label extension of the Phase 2 study TM005 (additional 24 weeks, 48 weeks in total); assay type: in vivo, human
Description: All subjects: co-administration of 0.5 mg tesofensine/50 mg metoprolol ER daily for 24 weeks. One tablet for each product.
TM005 was a 24-week phase 2, double-blind, randomized, placebo-controlled, single-centre, safety and efficacy study followed by a 24-week open-label extension treatment period designed to evaluate overall safety and tolerability of Tesomet (co-administration of 0.5 mg tesofensine and 50 mg metoprolol) in patients with hypothalamic obesity (HO).
The primary endpoint of the study was overall safety and tolerability measured by all safety data collected during the study including recorded adverse events, laboratory data, blood pressure, and heart rate. The secondary efficacy endpoints included bodyweight, waist circumference, glycemic control and other measures. In the double-blind (DB) period of the study, patients received either Tesomet or matching placebo (2:1 randomization) for 24 weeks.
A total of 21 patients (13 Tesomet, 8 placebo) were randomized into the double blind (DB) period. All patients who completed the DB period of the study were provided the opportunity to receive Tesomet in an open-label extension (OLE) period of the study for an additional 24 weeks. All 18 patients who completed the DB period chose to participate in the OLE period and all of these patients completed the OLE period. […]

[3] = rat model of diet-induced obesity; cited from earlier work
[4] = Phase 2 double-blind, randomized, placebo-controlled trial of Tesomet in hypothalamic obesity, Part 1 (24 weeks); assay type: in vivo, human; details: after 24 weeks of treatment (FIG. 3a)
Source text: The overall safety and tolerability of co-administration of tesofensine and metoprolol (Tesomet) in subjects with hypothalamic injury-induced obesity (HIO) was studied in a phase 2, double-blind, randomized, placebo-controlled, single-center safety and efficacy study followed by with an open-label extension, in total 48 weeks: • Part 1:24 Weeks double blinded treatment followed by • Part 2:24 weeks open lable extension.
The studied population were subjects suffering from obesity developed in relation to damage to the hypothalamus (HO), whether it is from an injuring trauma, bleeding, infaction, tumor, surgery or irradiation. […]
This randomized, double-blind, placebo-controlled Phase 2 trial evaluated Tesomet (tesofensine 0.5 mg+metoprolol 50 mg) administered daily in patients with HO, conducted at Rigshospitalet in Copenhagen, Denmark.
The primary endpoint of the study was overall safety and tolerability measured by all safety data collected during the study including recorded adverse events, laboratory data, blood pressure, and heart rate. […]
Continuous efficacy secondary endpoints were compared between treatment arms by means using Analysis of Co-variance (ANCOVA) including treatment as fixed factor and baseline value as covariate. Estimates and 95% confidence intervals of treatment differences were calculated

[5] = cited from earlier work

Compound	Half-life of beta blockers [1] [h]	Share of patients with at least 10% weight loss ([2]; FIG. 3b)	Body weight after 48 weeks of Tesomet ([2]; baseline to Week 48, 24 weeks double-blind + 24 weeks open-label (FIG. 5))	Body weight in DIO rats [3]	Share of patients with at least 5% weight loss [4]	Nocturnal energy expenditure ([5]; human subjects)	Weight loss in obese patients, corrected for placebo and diet effects ([5]; long-term treatment)
COc1ccccc1OCCNCC(O)COc1cccc2[nH]c3ccccc3c12 (racemic) [carvedilol, (±)-[3-(9H-carbazol-4-yloxy)-2-hydroxypropyl][2-(2-methoxyphenoxy)ethyl]amine]	7 to 10	–	–	–	–	–	–
CCOC[C@@H]1[C@@H](c2ccc(Cl)c(Cl)c2)C[C@@H]2CC[C@H]1N2C [Tesofensine, (1R,2R,3S,5S)-3-(3,4-dichlorophenyl)-2-(ethoxymethyl)-8-methyl-8-azabicyclo[3.2.1]octane]	–	33-41%	maintained	robust and sustained weight loss	approximately ⅔	increase nocturnal energy expenditure	about 10%
COCCc1ccc(OCC(O)CNC(C)C)cc1 (centres unmarked) [metoprolol, 1-(Isopropylamino)-3-[4-(2-methoxyethyl)-phenoxy]-propan-2-ol]	3 to 4	–	–	–	–	–	–
